In PubChem BioAssay (NCI):
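Cells were grown in 96-well plates and exposed to each compound for 48 hours at five concentrations; endpoints were interpolated linearly between bracketing concentrations, or set to the highest concentration if not reached. Abbreviation: GI50, concentration required for 50% inhibition of growth. TGI marks complete inhibition of growth.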

Legend:
Test in all cases: NCI anticancer screen, dose series, 48 h
BT-549 breast = tested on: BT-549 breast
HOP-62 NSCLC = tested on: HOP-62 NSCLC
786-0 renal = tested on: 786-0 renal
HOP-92 NSCLC = tested on: HOP-92 NSCLC
MOLT-4 leukemia = tested on: MOLT-4 leukemia
HL-60(TB) leukemia = tested on: HL-60(TB) leukemia
NCI-H226 lung = tested on: NCI-H226 lung
SK-MEL-28 melanoma = tested on: SK-MEL-28 melanoma
SN12C renal = tested on: SN12C renal
SK-MEL-5 melanoma = tested on: SK-MEL-5 melanoma
TK-10 renal = tested on: TK-10 renal
PC-3 prostate = tested on: PC-3 prostate
SR leukemia = tested on: SR leukemia
UO-31 renal = tested on: UO-31 renal
SNB-19 CNS = tested on: SNB-19 CNS
NCI-H522 lung = tested on: NCI-H522 lung
RXF 393 renal = tested on: RXF 393 renal
HS 578T breast = tested on: HS 578T breast
M14 melanoma = tested on: M14 melanoma
OVCAR-4 ovarian = tested on: OVCAR-4 ovarian
IGROV1 ovarian = tested on: IGROV1 ovarian
SF-295 CNS = tested on: SF-295 CNS
HT29 colon = tested on: HT29 colon
NCI/ADR-RES ovarian = tested on: NCI/ADR-RES ovarian
SW-620 colon = tested on: SW-620 colon
CAKI-1 renal = tested on: CAKI-1 renal
DU-145 prostate = tested on: DU-145 prostate
SK-MEL-2 melanoma = tested on: SK-MEL-2 melanoma
SNB-75 CNS = tested on: SNB-75 CNS
MALME-3M melanoma = tested on: MALME-3M melanoma
MCF7 breast = tested on: MCF7 breast
MDA-MB-435 = tested on: MDA-MB-435
CCRF-CEM leukemia = tested on: CCRF-CEM leukemia
RPMI-8226 leukemia = tested on: RPMI-8226 leukemia
OVCAR-5 ovarian = tested on: OVCAR-5 ovarian
HCT-116 colon = tested on: HCT-116 colon
T-47D breast = tested on: T-47D breast
KM12 colon = tested on: KM12 colon
A549 NSCLC = tested on: A549 NSCLC
NCI-H460 lung = tested on: NCI-H460 lung
HCC-2998 colon = tested on: HCC-2998 colon
OVCAR-8 ovarian = tested on: OVCAR-8 ovarian
SF-268 CNS = tested on: SF-268 CNS
HCT-15 colon = tested on: HCT-15 colon
SF-539 CNS = tested on: SF-539 CNS
UACC-257 melanoma = tested on: UACC-257 melanoma
A498 renal = tested on: A498 renal
COLO 205 colon = tested on: COLO 205 colon
SK-OV-3 ovarian = tested on: SK-OV-3 ovarian
K-562 leukemia = tested on: K-562 leukemia
EKVX NSCLC = tested on: EKVX NSCLC
UACC-62 melanoma = tested on: UACC-62 melanoma
OVCAR-3 ovarian = tested on: OVCAR-3 ovarian
NCI-H23 lung = tested on: NCI-H23 lung
MDA-MB-231 breast = tested on: MDA-MB-231 breast
U251 CNS = tested on: U251 CNS

SMILES: COC(=O)[C@H](Cc1ccccc1)NC(=O)[C@@H](OC)[C@@H]1Cc2cc3cc(OC4CC(OC5CC(O)C(O)C(C)O5)C(O)C(C)O4)c(C)c(O)c3c(O)c2C(=O)[C@H]1OC1CC(OC2CC(OC3CC(C)(O)C(O)C(C)O3)C(O)C(C)O2)C(O)C(C)O1 (some centres not stated)
- GI50 (BT-549 breast): 7.13 nM
- TGI (BT-549 breast): 57.4 nM
- GI50 (HOP-62 NSCLC): 14.7 nM
- TGI (HOP-62 NSCLC): 11400 nM
- GI50 (786-0 renal): 18.8 nM
- TGI (786-0 renal): > 14300 nM
- GI50 (HOP-92 NSCLC): 4.51 nM
- TGI (HOP-92 NSCLC): 202 nM
- GI50 (MOLT-4 leukemia): 17 nM
- TGI (MOLT-4 leukemia): 161 nM
- GI50 (HL-60(TB) leukemia): 33.6 nM
- TGI (HL-60(TB) leukemia): 649 nM
- GI50 (NCI-H226 lung): 18 nM
- TGI (NCI-H226 lung): 74.1 nM
- GI50 (SK-MEL-28 melanoma): 5.78 nM
- TGI (SK-MEL-28 melanoma): 36.8 nM
- GI50 (SN12C renal): 9.91 nM
- TGI (SN12C renal): > 14300 nM
- GI50 (SK-MEL-5 melanoma): 6.91 nM
- TGI (SK-MEL-5 melanoma): 35.7 nM
- GI50 (TK-10 renal): 43.9 nM
- TGI (TK-10 renal): > 14300 nM
- GI50 (PC-3 prostate): 21.5 nM
- TGI (PC-3 prostate): 429 nM
- GI50 (SR leukemia): 7.36 nM
- TGI (SR leukemia): 1040 nM
- GI50 (UO-31 renal): 34.3 nM
- TGI (UO-31 renal): 332 nM
- GI50 (SNB-19 CNS): 17.3 nM
- TGI (SNB-19 CNS): > 14300 nM
- GI50 (NCI-H522 lung): 6.4 nM
- TGI (NCI-H522 lung): 1720 nM
- GI50 (RXF 393 renal): 4.6 nM
- TGI (RXF 393 renal): 25.2 nM
- GI50 (HS 578T breast): 13.1 nM
- TGI (HS 578T breast): 348 nM
- GI50 (M14 melanoma): 26.7 nM
- TGI (M14 melanoma): 105 nM
- GI50 (OVCAR-4 ovarian): 27.7 nM
- TGI (OVCAR-4 ovarian): > 14300 nM
- GI50 (IGROV1 ovarian): 9.02 nM
- TGI (IGROV1 ovarian): > 14300 nM
- GI50 (SF-295 CNS): 25 nM
- TGI (SF-295 CNS): 1700 nM
- GI50 (HT29 colon): 26.8 nM
- TGI (HT29 colon): > 14300 nM
- GI50 (NCI/ADR-RES ovarian): 4220 nM
- TGI (NCI/ADR-RES ovarian): > 14300 nM
- GI50 (SW-620 colon): 19.6 nM
- TGI (SW-620 colon): > 14300 nM
- GI50 (CAKI-1 renal): 41.6 nM
- TGI (CAKI-1 renal): > 14300 nM
- GI50 (DU-145 prostate): 28.6 nM
- TGI (DU-145 prostate): > 14300 nM
- GI50 (SK-MEL-2 melanoma): 17.3 nM
- TGI (SK-MEL-2 melanoma): 70.7 nM
- GI50 (SNB-75 CNS): 18.6 nM
- TGI (SNB-75 CNS): 57.5 nM
- GI50 (MALME-3M melanoma): 6.93 nM
- TGI (MALME-3M melanoma): 28.7 nM
- GI50 (MCF7 breast): 5.34 nM
- TGI (MCF7 breast): 241 nM
- GI50 (MDA-MB-435): 18.2 nM
- TGI (MDA-MB-435): 64.2 nM
- GI50 (CCRF-CEM leukemia): 13.7 nM
- TGI (CCRF-CEM leukemia): > 14300 nM
- GI50 (RPMI-8226 leukemia): 10.9 nM
- TGI (RPMI-8226 leukemia): 73 nM
- GI50 (OVCAR-5 ovarian): 39.6 nM
- TGI (OVCAR-5 ovarian): > 14300 nM
- GI50 (HCT-116 colon): 5.87 nM
- TGI (HCT-116 colon): > 14300 nM
- GI50 (T-47D breast): 19 nM
- TGI (T-47D breast): > 14300 nM
- GI50 (KM12 colon): 14.8 nM
- TGI (KM12 colon): 120 nM
- GI50 (A549 NSCLC): 53.2 nM
- TGI (A549 NSCLC): > 14300 nM
- GI50 (NCI-H460 lung): 19.7 nM
- TGI (NCI-H460 lung): > 14300 nM
- GI50 (HCC-2998 colon): 15.8 nM
- TGI (HCC-2998 colon): 47.8 nM
- GI50 (OVCAR-8 ovarian): 10.8 nM
- TGI (OVCAR-8 ovarian): > 14300 nM
- GI50 (SF-268 CNS): 29.8 nM
- TGI (SF-268 CNS): 2240 nM
- GI50 (HCT-15 colon): 72.5 nM
- TGI (HCT-15 colon): > 14300 nM
- GI50 (SF-539 CNS): 8.8 nM
- TGI (SF-539 CNS): 65 nM
- GI50 (UACC-257 melanoma): 10.3 nM
- TGI (UACC-257 melanoma): 2540 nM
- GI50 (A498 renal): 24 nM
- TGI (A498 renal): 62.6 nM
- GI50 (COLO 205 colon): 18.2 nM
- TGI (COLO 205 colon): 68.2 nM
- GI50 (SK-OV-3 ovarian): 50.9 nM
- TGI (SK-OV-3 ovarian): > 14300 nM
- GI50 (K-562 leukemia): 31.2 nM
- TGI (K-562 leukemia): > 14300 nM
- GI50 (EKVX NSCLC): 39.3 nM
- TGI (EKVX NSCLC): > 14300 nM
- GI50 (UACC-62 melanoma): 4.73 nM
- TGI (UACC-62 melanoma): 20.9 nM
- GI50 (OVCAR-3 ovarian): 14.2 nM
- TGI (OVCAR-3 ovarian): 79.3 nM
- GI50 (NCI-H23 lung): 10.6 nM
- TGI (NCI-H23 lung): 82.1 nM
- GI50 (MDA-MB-231 breast): 30.5 nM
- TGI (MDA-MB-231 breast): 9090 nM
- GI50 (U251 CNS): 25.7 nM
- TGI (U251 CNS): > 14300 nM
